From US20220079899A1, “COMPOSITIONS AND METHODS FOR TREATING OCULAR CONDITIONS” (The Regents of the University of California, priority 2019, published 2022)

Test system: calcification in injured hearts of ABCC6-deficient mice
Test: Calcification after heart injury in a mouse model of PXE
Assay type: in vivo
Conditions: intraperitoneally 1 mcg/daily for 7 days, versus vehicle
Procedure: FIGS. 1A and 1B show calcification in injured hearts in a mouse model of PXE treated with vehicle (A) or ARL67156 (B).
ENPP1 inhibitors attenuate calcification in a mouse model of PXE. Mice genetically deficient in ABCC6 (the causative gene in PXE) were subjected to heart injury, and either (A) vehicle or (B) ARL67156 was administered (intraperitoneally 1 mcg/daily) for 7 days.

CCN(CC)c1ncnc2c1ncn2[C@@H]1O[C@H](COP(=O)(O)OP(=O)(O)C(Br)(Br)P(=O)(O)O)[C@@H](O)[C@H]1O [ARL67156]
calcification in the injured region: significant attenuation of calcification
